# Tests used:
# [1] = Inhibition of Staphylococcus aureus SrtA
# [2] = Inhibition of Staphylococcus aureus SrtA after 2 hrs
# [3] = Inhibition of Bacillus anthracis SrtA
# [4] = Inhibition of Staphylococcus aureus SrtA by FRET assay
# [5] = Inhibition of Staphylococcus aureus ATCC 6538p recombinant SrtA after 1 hr by spectrometery using Dabcyl-QALPETGEE-Edans as substrate
# [6] = Competitive inhibition of Staphylococcus aureus ATCC 6538p recombinant SrtA by spectrometery using Dabcyl-QALPETGEE-Edans as substrate
# [7] = Inhibition of Staphylococcus aureus ATCC 6538p SrtA by spectrometery
smiles,measurement,setting,value
Clc1ccccc1-c1nn2c(-c3ccncc3)nnc2s1,IC50,[1],11.78 µg/mL
CN(C)CCC(=O)c1ccc(Cl)c(Cl)c1,IC50,[2],15 µM
same,IC50,[3],5.6 µM
O=C(O)COc1ccccc1C1Nc2cccc3cccc(c23)N1,IC50,[4],15.12 µg/mL
CC[C@H](CC[C@@H](C)[C@H]1CC[C@H]2[C@@H]3CC[C@@H]4C[C@@H](O[C@@H]5O[C@H](CO)[C@@H](O)[C@H](O)[C@H]5O)CC[C@]4(C)[C@H]3CC[C@]12C)C(C)C,IC50,[5],18.3 µg/mL
CN(C)CCC(=O)c1cccs1,IC50,[2],47 µM
same,IC50,[3],4.8 µM
COC(=O)/C(=C/c1ccc(OC)cc1)c1ccc(OC)cc1,IC50,[5]; read-out: IC50,231 µM
COc1ccc(/C(C#N)=C/c2cc(OC)ccc2OC)cc1,IC50,[5]; read-out: IC50,9.2 µM
same,Ki,[6],6.81 µM
COc1ccc(/C=C(\C#N)c2ccc(OC)cc2)cc1,IC50,[5]; read-out: IC50,28 µM
COc1ccc2cc3[n+](cc2c1OC)CCc1cc2c(cc1-3)OCO2.[Cl-] [BERBERINE CHLORIDE],IC50,[5],8.7 µg/mL
COc1cc(/C=C/C(=O)CC(=O)/C=C/c2ccc(O)c(OC)c2)ccc1O [CURCUMIN],IC50,[7],13.8 µg/mL
C=C(C)[C@H](CCC(C)(C)O)Cc1c(O)cc(OC)c2c1O[C@H](c1ccc(O)cc1O)CC2=O [KURARINOL],IC50,[1],48.8 µg/mL
